Measured values from ChEMBL document CHEMBL4715874, “In Vivo Screening of Xanthones from Garcinia oligantha Identified Oliganthin H as a Novel Natural Inhibitor of Convulsions” (J Nat Prod, 2020).
Active and inactive are the calls of the source. No cut-off for these calls is given here.

Columns and labels:
Danio rerio [1] = species: Danio rerio; assay: Anticonvulsant activity in AB zebra fish larvae assessed as PTZ-induced PRKACB mRNA expression at 25 uM pretreated for 6 hrs followed by PTZ-stimulation and measured after 30 mins by qRT-PCR analysis (reference value: 1.49 +/- 0.69%); format: functional; details: time 6.5 hrs
Danio rerio [2] = species: Danio rerio; assay: Anticonvulsant activity in AB zebra fish larvae assessed as PTZ-induced c-fos mRNA expression at 25 uM pretreated for 6 hrs followed by PTZ-stimulation and measured after 30 mins by qRT-PCR analysis (reference value: 8.91 +/- 0.54%); format: functional; details: time 6.5 hrs
[3] = Effect of pvalb5 mRNA expression in AB zebra fish larvae at 25 uM after 6 hrs by qRT-PCR analysis (reference value: 1 +/- 0.07%); format: ADME, Danio rerio; details: zebrafish
[4] = Effect of gat1 mRNA expression in AB zebra fish larvae at 25 uM after 6 hrs by qRT-PCR analysis (reference value: 1.03 +/- 0.38%); format: ADME, Danio rerio; details: zebrafish
Danio rerio [5] = species: Danio rerio; assay: Anticonvulsant activity in AB zebra fish larvae assessed as reduction in PTZ-induced convulsant behavior by measuring swimming distance at 6.2 uM pretreated for 6 hrs followed by PTZ-stimulation and measured every 5 mins for 1 hr; format: functional, organism-based; details: time 7.0 hrs
Danio rerio [6] = species: Danio rerio; assay: Anticonvulsant activity in AB zebra fish larvae assessed as PTZ-induced pvalb5 mRNA expression at 25 uM pretreated for 6 hrs followed by PTZ-stimulation and measured after 30 mins by qRT-PCR analysis (reference value: 0.59 +/- 0.52%); format: functional; details: time 6.5 hrs
[7] = Effect of GLULA mRNA expression in AB zebra fish larvae at 25 uM after 6 hrs by qRT-PCR analysis (reference value: 1.02 +/- 0.29%); format: ADME, Danio rerio; details: zebrafish
[8] = Effect of PYYA mRNA expression in AB zebra fish larvae at 25 uM after 6 hrs by qRT-PCR analysis (reference value: 1 +/- 0.13%); format: ADME, Danio rerio; details: zebrafish
Danio rerio [9] = species: Danio rerio; assay: Anticonvulsant activity in AB zebra fish larvae assessed as PTZ-induced velocity at 6.2 uM pretreated for 6 hrs followed by PTZ-stimulation and measured every 5 mins for 30 mins (reference value: 0.63 +/- 0.23 mm/s); format: functional; details: time 6.5 hrs
Danio rerio [10] = species: Danio rerio; assay: Anticonvulsant activity in AB zebra fish larvae assessed as PTZ-induced velocity at 25 uM pretreated for 6 hrs followed by PTZ-stimulation and measured every 5 mins for 30 mins (reference value: 0.63 +/- 0.23 mm/s); format: functional; details: time 6.5 hrs
Danio rerio [11] = species: Danio rerio; assay: Anticonvulsant activity in AB zebra fish larvae assessed as PTZ-induced velocity at 12.5 uM pretreated for 6 hrs followed by PTZ-stimulation and measured every 5 mins for 30 mins (reference value: 0.63 +/- 0.23 mm/s); format: functional; details: time 6.5 hrs
Danio rerio [12] = species: Danio rerio; assay: Anticonvulsant activity in AB zebra fish larvae assessed as PTZ-induced gad1 mRNA expression at 25 uM pretreated for 6 hrs followed by PTZ-stimulation and measured after 30 mins by qRT-PCR analysis (reference value: 5.45 +/- 1.77%); format: functional; details: time 6.5 hrs
[13] = Neurotoxicity in AB zebra fish larvae assessed as decrease in total swimming distance at <= MTC after 6 hrs; format: toxicity, Danio rerio; details: zebrafish
[14] = Effect of c-fos mRNA expression in AB zebra fish larvae at 25 uM after 6 hrs by qRT-PCR analysis (reference value: 1.06 +/- 0.52%); format: ADME, Danio rerio; details: zebrafish
[15] = Ratio of MTC for toxicity in AB zebra fish larvae to lowest observed effect concentration for Anticonvulsant activity in AB zebra fish larvae assessed as reduction in PTZ-induced convulsant behavior; parameters: species or system Danio rerio
[16] = Neurotoxicity in AB zebra fish larvae at 100 uM after 6 hrs; format: toxicity, Danio rerio; details: zebrafish
Danio rerio [17] = species: Danio rerio; assay: Anticonvulsant activity in AB zebra fish larvae assessed as reduction in PTZ-induced convulsant behavior by measuring swimming distance at 25 uM pretreated for 6 hrs followed by PTZ-stimulation and measured every 5 mins for 1 hr relative to control; format: functional; parameters: scale not given: the % may be the effect or the level left; details: time 7 hrs
Danio rerio [18] = species: Danio rerio; assay: Anticonvulsant activity in AB zebra fish larvae assessed as PTZ-induced gabra1 mRNA expression at 25 uM pretreated for 6 hrs followed by PTZ-stimulation and measured after 30 mins by qRT-PCR analysis (reference value: 19.68 +/- 3.28%); format: functional; details: time 6.5 hrs
Danio rerio [19] = species: Danio rerio; assay: Anticonvulsant activity in AB zebra fish larvae assessed as PTZ-induced seizure duration time at 6.2 uM pretreated for 6 hrs followed by PTZ-stimulation and measured every 5 mins for 30 mins (reference value: 0.32 +/- 0.31 s); format: functional; details: time 6.5 hrs
[20] = Toxicity in AB zebra fish larvae assessed as maximum tolerated concentration after 6 hrs; parameters: species or system Danio rerio; details: zebrafish, read-out: MTC
[21] = Effect of glud1a mRNA expression in AB zebra fish larvae at 25 uM after 6 hrs by qRT-PCR analysis (reference value: 1 +/- 0.16%); format: ADME, Danio rerio; details: zebrafish
Danio rerio [22] = species: Danio rerio; assay: Anticonvulsant activity in AB zebra fish larvae assessed as PTZ-induced seizure activity at 12.5 uM pretreated for 6 hrs followed by PTZ-stimulation and measured every 5 mins for 30 mins (reference value: 14.13 +/- 0.004 mm); format: functional; details: time 6.5 hrs
[23] = Effect of gabra1 mRNA expression in AB zebra fish larvae at 25 uM after 6 hrs by qRT-PCR analysis (reference value: 1 +/- 0.11%); format: ADME, Danio rerio; details: zebrafish
[24] = Effect of BDNF mRNA expression in AB zebra fish larvae at 25 uM after 6 hrs by qRT-PCR analysis (reference value: 1.01 +/- 0.21%); format: ADME, Danio rerio; details: zebrafish
Danio rerio [25] = species: Danio rerio; assay: Anticonvulsant activity in AB zebra fish larvae assessed as PTZ-induced seizure duration time at 25 uM pretreated for 6 hrs followed by PTZ-stimulation and measured every 5 mins for 30 mins (reference value: 0.32 +/- 0.31 s); format: functional; details: time 6.5 hrs

CC(C)=CCC/C(C)=C/C[C@@]1(CC=C(C)C)C(=O)C(O)=C(O)c2oc3c4c(cc(O)c3c(=O)c21)OC(C)(C)C=C4
Activity (Danio rerio [1]): 1.21% | Activity (Danio rerio [2]): 3.31% | Activity [3]: 0.86% | Activity [4]: 0.87% | Activity (Danio rerio [5]): inactive | Activity (Danio rerio [6]): 0.85% | Activity [7]: 0.76% | Activity [8]: 2.27% | Activity (Danio rerio [9]): 1.2 millimeter/sec | Activity (Danio rerio [10]): 0.8 millimeter/sec | Activity (Danio rerio [11]): 0.86 millimeter/sec | Activity (Danio rerio [12]): 1.08% | Activity [13]: Non-Toxic | Activity [14]: 1.67% | Ratio [15]: 4 | Activity [16]: Toxic | Activity (Danio rerio [17]): 50% | Activity (Danio rerio [18]): 1.34% | Time (Danio rerio [19]): 18.46 s | MNTC at 6 h [20]: 50 µM | Activity [21]: 1% | Activity (Danio rerio [22]): 600.8 mm | Activity [23]: 1.77% | Activity [24]: 1.14% | Time (Danio rerio [25]): 7.32 s
